Data: patent US9951055B2, “Thiazole-based inhibitors of scavenger receptor BI” (THE BROAD INSTITUTE, INC., priority 2012, dated 2018)
Where two headings read alike, the source gives them in different places.

How the values were obtained:
SR-BI [1] = molecular target: T1, SR-BI (Mus musculus, UniProt Q61009); assay: HDL binding assay (Alexa 488 HDL); format: cell-based; set-up: expressed in transfected cells; settings: Alexa-488 labeled HDL particles
T1 sequence (Q61009 1-509): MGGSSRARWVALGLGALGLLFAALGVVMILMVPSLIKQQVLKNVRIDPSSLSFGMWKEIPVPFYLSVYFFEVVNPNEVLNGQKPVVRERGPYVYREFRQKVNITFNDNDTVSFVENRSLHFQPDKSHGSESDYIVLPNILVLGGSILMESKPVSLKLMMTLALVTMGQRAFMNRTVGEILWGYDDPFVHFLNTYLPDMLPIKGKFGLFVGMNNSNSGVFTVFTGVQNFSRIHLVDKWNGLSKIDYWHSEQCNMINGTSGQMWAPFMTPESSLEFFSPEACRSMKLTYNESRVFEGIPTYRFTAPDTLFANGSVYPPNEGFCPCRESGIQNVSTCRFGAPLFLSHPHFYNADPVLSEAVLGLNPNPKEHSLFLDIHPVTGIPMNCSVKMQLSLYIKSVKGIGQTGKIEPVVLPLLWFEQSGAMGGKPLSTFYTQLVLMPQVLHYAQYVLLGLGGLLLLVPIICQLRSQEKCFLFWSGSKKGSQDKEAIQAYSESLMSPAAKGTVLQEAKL
Experimental: HDL binding was assessed using Alexa Fluor 488-labeled HDL particles. For this assay, the Alexa 488 dye was covalently bound to apolipoprotein components of the HDL particle via primary amines; thus, no transfer of the fluorophore to cell membranes occurs. In this manner, direct binding of the HDL particles to SR-BI can be measured. As a positive control, BLT-1, which is known to increase binding of HDL to SR-BI, was used at 1 μM (12). It is possible that a compound can reduce binding of HDL to the receptor, and this would lead to a decrease in signal. This assay is used to characterize the mechanism of action of a particular compound; therefore, any outcome in the assay is acceptable. Data were normalized against DMSO and the positive control (1 μM BLT-1) in Genedata Assay Analyzer.

[2] = Stability in human plasma; format: in vitro ADME; settings: after a 5-hour incubation period
Experimental: The stability of the probe in PBS (1% DMSO) was measured over 48 hours. We noticed that the concentration of the probe fluctuated through the course of the assay (data not shown). We believe that this fluctuation is due to the low solubility of the probe. Thus, we decided to determine the amount of undissolved probe present in the well after it was treated with PBS for a given length of time, relative to the amount of undissolved probe at the start of the assay. The wells were centrifuged and the supernatant was removed after various time points, then acetonitrile was added to dissolve the remaining solid in the wells, and the amount of probe was quantified. […] The stability of the probe was confirmed by measuring stability in human plasma, with >99% remaining after a 5-hour incubation period. […] FIG. 5 provides a tablular summary of Known Probe (ML278) Properties Computed from Structure.

murine SR-BI = molecular target: T2, murine SR-BI (Mus musculus, UniProt Q61009); assay: Compound reversibility, cellular uptake of DiI from DiI-HDL; format: cell-based; settings: 1 hr preincubation, then 0 or 4 hr incubation in the absence of compound; read-out: IC50, reversibility test (DiI uptake)
T2 construct: expressed in transfected cells; host or cells: ldlA[mSR-BI]; (CHO ldlA7 derivative lacking the LDL receptor)
T2 sequence (Q61009 1-509): T1 sequence (Q61009 1-509)
Experimental: Compound reversibility was tested by measuring the cellular uptake of DiI from DiI-HDL (all incubations at 37° C.) in ldlA7 cells that were stably transfected with cDNA encoding murine SR-BI. On day 0, 50,000 cells were plated in 96-well dishes per well (Costar, black with clear, flat bottom) in Ham's F12 medium containing 2 mM L-glutamine, 50 units/mL penicillin per 50 μg/mL streptomycin (medium A) supplemented with 5% (vol/vol) FBS and 0.25 mg/mL G418 (medium B). On day 2, the cells were washed twice with prewarmed (37° C.) medium A. The cells were then preincubated with the tested compounds in 200 μL per well of medium A plus 0.5% (wt/vol) BSA plus 0.5% (vol/vol) DMSO (medium C) for 1 hr. The 1 hr preincubation was followed by either a 0 or 4 hr incubation in medium C in the absence of compound. The cells were then incubated in medium C (200 μL per well) containing 10 μg protein per mL of DiI-HDL at 37° C. for 2 h to measure DiI uptake. […] Then 50 μL PBS was added and fluorescence measurements made using a Molecular Devices SpectraMax fluorescence plate reader (excitation at 515 nm, emission at 575 nm, bottom read mode). DiI uptake was also measured in the presence of a 40-fold excess of unlabeled HDL to determine nonspecific (SR-BI-independent) uptake.

SR-BI [3] = molecular target: T1, SR-BI; assay: 125I-HDL binding assay; set-up: expressed in transfected cells
Experimental: In a binding assay, ^125I-HDL binding to cells (4° C. or 37° C.) was measured for 2 h in the absence (total activity) or presence (nonspecific activity) of a 40-fold excess of unlabeled HDL. Stably transfected cells were seeded in the wells of 24-well plates (50,000 cells per well) in Ham's F12 medium containing 2 mM L-glutamine, 50 units/mL penicillin per 50 μg/mL streptomycin (medium A) supplemented with 5% (vol/vol) FBS and 0.25 mg/mL G418 (medium B) on day 0, and binding assays were performed on day 2. The cells were washed twice with prewarmed (37° C.) medium A plus 0.5% (wt/vol) BSA (medium C) prior to adding ^125I-HDL. For binding assays performed at 4° C., the assay plates were removed from the incubator, precooled for 30 min on ice in a cold room (4° C.), and then washed twice with cold (4° C.) medium C supplemented with 10 mM Hepes, pH 7.4, prior to adding ^125I-HDL. Specific binding or uptake is the difference between total and nonspecific activities. In assays using small molecule inhibitors (all incubations at 37° C.), immediately prior to incubation with ^125I-HDL, the cells were washed twice with medium A, preincubated with the small molecules for 1 h, and then incubated with radiolabeled lipoproteins as described above, all in medium C plus 0.5% (vol/vol) DMSO in the presence of the indicated concentrations of small molecules.

Structure (SMILES): COCC(=O)N1CCc2cc(-c3csc(NC(=O)c4cc(OC)cc(OC)c4)n3)ccc21 [Compound 137, 3,5-Dimethoxy-N-(4-(1-(2-methoxyacetyl)indolin-5-yl)thiazol-2-yl)benzamide]
- binding of HDL to SR-BI (SR-BI [1]): increases binding of HDL to the receptor
- stability in human plasma, remaining [2]: > 99%
- IC50 (murine SR-BI): 315 nM
- IC50 (SR-BI [3]; 37° C., 1 h preincubation with compound, read-out: IC50): 5.7 nM
- IC50 (SR-BI [3]; range, read-out: measured range of IC50): 0.93 to 6 nM
